We go through 42 compounds from patent US20170320870A1 (Medical Research Council Technology, priority 2009, published 2017).

This experiment has as its target T1, LRRK2 wild type (recombinant human, catalytic domain amino acids 970-2527, GST-tagged) (Homo sapiens, UniProt Q5S007).
T1 construct: The wild type used was recombinant human, catalytic domain (amino acids 970-2527) GST-tagged, expressed in insect cells; GST; purchased Invitrogen Corporation PV4873; host or cells: insect cells
The experiment can be described thus: LRRK2 wild type protein kinase assay ([γ-33P] ATP, peptide substrate […]), IC50. Type of experiment: biochemical. The following applies: LRRK2 (variant not given); read-out: Potency score, LRRK2 IC50. In a few lines:
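IC50 derived from duplicate 10-point titrations, with 33P incorporation into a 100 μM peptide counted after P81 filter capture. Roughly 5 nM unactivated kinase reacted with Mg/[γ-33P]ATP for 180 min at room temperature (~21 °C), pH 7.5 Tris buffer containing 10 mM MgCl2, EGTA and DTT; acid-quenched.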

T1 sequence (Q5S007 970-2527): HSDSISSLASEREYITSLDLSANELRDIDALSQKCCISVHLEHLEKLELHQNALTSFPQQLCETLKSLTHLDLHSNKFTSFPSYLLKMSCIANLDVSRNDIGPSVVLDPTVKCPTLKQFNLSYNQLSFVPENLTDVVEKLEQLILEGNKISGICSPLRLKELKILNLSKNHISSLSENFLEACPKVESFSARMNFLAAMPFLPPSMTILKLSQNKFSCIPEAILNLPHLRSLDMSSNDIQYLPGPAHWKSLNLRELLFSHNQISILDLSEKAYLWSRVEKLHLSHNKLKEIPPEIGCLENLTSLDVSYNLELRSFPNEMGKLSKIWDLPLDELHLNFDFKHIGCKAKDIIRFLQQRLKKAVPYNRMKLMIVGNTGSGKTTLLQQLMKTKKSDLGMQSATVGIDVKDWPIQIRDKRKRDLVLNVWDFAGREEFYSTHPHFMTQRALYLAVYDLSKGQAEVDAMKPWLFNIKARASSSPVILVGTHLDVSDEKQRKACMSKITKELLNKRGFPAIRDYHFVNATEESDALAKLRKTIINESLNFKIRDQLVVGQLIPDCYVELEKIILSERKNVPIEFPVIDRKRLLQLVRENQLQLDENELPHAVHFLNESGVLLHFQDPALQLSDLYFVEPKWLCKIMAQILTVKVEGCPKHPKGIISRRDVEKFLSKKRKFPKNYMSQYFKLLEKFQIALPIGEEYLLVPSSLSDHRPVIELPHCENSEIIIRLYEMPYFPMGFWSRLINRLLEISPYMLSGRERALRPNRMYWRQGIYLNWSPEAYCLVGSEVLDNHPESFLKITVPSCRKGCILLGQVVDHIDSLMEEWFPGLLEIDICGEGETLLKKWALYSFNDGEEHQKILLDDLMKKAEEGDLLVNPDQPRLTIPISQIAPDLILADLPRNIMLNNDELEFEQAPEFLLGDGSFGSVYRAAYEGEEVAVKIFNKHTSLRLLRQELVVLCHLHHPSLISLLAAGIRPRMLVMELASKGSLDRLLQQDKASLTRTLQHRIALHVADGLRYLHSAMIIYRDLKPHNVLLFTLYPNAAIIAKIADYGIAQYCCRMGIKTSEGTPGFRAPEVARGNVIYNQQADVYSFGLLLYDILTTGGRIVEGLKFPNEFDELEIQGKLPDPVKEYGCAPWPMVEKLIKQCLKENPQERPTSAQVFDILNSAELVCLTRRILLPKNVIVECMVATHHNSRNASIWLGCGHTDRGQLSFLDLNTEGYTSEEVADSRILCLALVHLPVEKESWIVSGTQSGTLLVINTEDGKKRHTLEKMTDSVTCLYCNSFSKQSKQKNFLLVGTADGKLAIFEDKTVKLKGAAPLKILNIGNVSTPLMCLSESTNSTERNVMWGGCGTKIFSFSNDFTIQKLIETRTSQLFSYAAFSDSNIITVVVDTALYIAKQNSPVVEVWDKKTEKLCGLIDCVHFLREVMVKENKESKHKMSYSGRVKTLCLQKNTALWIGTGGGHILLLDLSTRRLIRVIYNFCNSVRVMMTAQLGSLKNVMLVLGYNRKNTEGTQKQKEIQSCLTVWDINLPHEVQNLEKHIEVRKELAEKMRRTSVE

With `O=C(COc1ccccc1)Nc1ccc(CCc2n[nH]c3ccnc(NC4CCCCC4)c23)cc1` [Example 273, N-{4-[2-(4-Cyclohexylamino-1H-pyrazolo[4,3-c]pyridin-3-yl)-ethyl]-phenyl}-2-phenoxy-acetamide], the IC50 was below 100 nM.
With `c1cc2[nH]ncc2c(NC2CCCCC2)n1` [Example 133, Cyclohexyl-(1H-pyrazolo[4,3-c]pyridin-4-yl)-amine] the figure was 1000 to 10000 nM.
Consider `Cc1n[nH]c2ccnc(N[C@@H](C)C3CC3)c12` [Example 42, ((S)-1-Cyclopropyl-ethyl)-(3-methyl-1H-pyrazolo[4,3-c]pyridin-4-yl)-amine], for which the IC50 was 100 to 1000 nM.
With `Cc1n[nH]c2ccnc(NCC(C)(C)C)c12` [Example 32, (2,2-Dimethyl-propyl)-(3-methyl-1H-pyrazolo[4,3-c]pyridin-4-yl)-amine] the figure was 1000 to 10000 nM.
`CCOc1nccc2[nH]nc(C)c12` [Example 124, 4-Ethoxy-3-methyl-1H-pyrazolo[4,3-c]pyridine]: the IC50 lay within 100 to 1000 nM.
Turning to `Cc1n[nH]c2ccnc(-c3ccc(F)cc3)c12` [Example 50, 4-(4-Fluoro-phenyl)-3-methyl-1H-pyrazolo[4,3-c]pyridine], the IC50 is 1000 to 10000 nM.
`COc1ccc(CCNc2nccc3[nH]nc(C)c23)cc1` [Example 338, [2-(4-Methoxy-phenyl)-ethyl]-(3-methyl-1H-pyrazolo[4,3-c]pyridin-4-yl)-amine]: the IC50 was in the range of 1000 to 10000 nM.
For `Cc1n[nH]c2ccnc(OC3CCCCCC3)c12` [Example 283, 4-Cycloheptyloxy-3-methyl-1H-pyrazolo[4,3-c] pyridine], the IC50 is below 100 nM.
Consider `O=C(CCc1n[nH]c2ccnc(NC3CCCCC3)c12)NC1CCCC1` [Example 184, 3-(4-Cyclohexylamino-1H-pyrazolo[4,3-c]pyridin-3-yl)-N-cyclopentyl-propionamide], for which the 50% inhibitory concentration (IC50) was 100 to 1000 nM.
Regarding `O=C(CCc1n[nH]c2ccnc(NC3CCCCC3)c12)N1CCC(c2ccncc2)C1` (stereo not drawn) [Example 209, 3-(4-Cyclohexylamino-1H-pyrazolo[4,3-c]pyridin-3-yl)-1-(3-pyridin-4-yl-pyrrolidin-1-yl)-propan-1-one], the IC50 is below 100 nM.
For `Nc1cccc(CCc2n[nH]c3ccnc(NC4CCCCC4)c23)c1` [Example 221, {3-[2-(3-Amino-phenyl)-ethyl]-1H-pyrazolo[4,3-c]pyridin-4-yl}-cyclohexyl-amine], the IC50 was below 100 nM.
With `O=C(CCc1n[nH]c2ccnc(NC3CCCCC3)c12)N1CC(c2ccccc2)C1` [Example 242, 3-(4-Cyclohexylamino-1H-pyrazolo[4,3-c]pyridin-3-yl)-1-(3-phenyl-azetidin-1-yl)-propan-1-one], the IC50 lay within 100 to 1000 nM.
Regarding `CC(=O)Nc1cccc(Nc2nccc3[nH]nc(C)c23)c1` [Example 78, N-[3-(3-Methyl-1H-pyrazolo[4,3-c]pyridin-4-ylamino)-phenyl]-acetamide], the 50% inhibitory concentration (IC50) lay within 1000 to 10000 nM.
Regarding `Cc1n[nH]c2ccnc(NCCc3cccc(F)c3)c12` [Example 333, [2-(3-Fluoro-phenyl)-ethyl]-(3-methyl-1H-pyrazolo[4,3-c]pyridin-4-yl)-amine], the IC50 was 100 to 1000 nM.
In the case of `O=C(CCc1n[nH]c2ccnc(NC3CCCCC3)c12)N1CCCC(F)(F)C1` [Example 191, 3-(4-Cyclohexylamino-1H-pyrazolo[4,3-c]pyridin-3-yl)-1-(3,3-difluoro-piperidin-1-yl)-propan-1-one], the IC50 is below 100 nM.
`Cc1n[nH]c2ccnc(Nc3cccc(N4CCOCC4)c3)c12` [Example 80, (3-Methyl-1H-pyrazolo[4,3-c]pyridin-4-yl)-(3-morpholin-4-yl-phenyl)-aniline]: the IC50 fell in the range of 1000 to 10000 nM.
With `Cc1n[nH]c2ccnc(N[C@H](CO)C(C)C)c12` [Example 28, (S)-3-Methyl-2-(3-methyl-1H-pyrazolo[4,3-c]pyridin-4-ylamino)-butan-1-ol] the figure was 1000 to 10000 nM.
With `Cc1n[nH]c2ccnc(NCCc3c[nH]c4ccccc34)c12` [Example 342, [2-(1H-Indol-3-yl)-ethyl]-(3-methyl-1H-pyrazolo[4,3-c]pyridin-4-yl)-amine] the figure was 1000 to 10000 nM; with `CC1CN(C(=O)CCc2n[nH]c3ccnc(NC4CCCCC4)c23)CCN1C` (stereo not drawn) [Example 244, 3-(4-Cyclohexylamino-1H-pyrazolo [4,3-c]pyridin-3-yl)-1-(3,4-dimethyl-piperazin-1-yl)-propan-1-one], 100 to 1000 nM.
In the case of `COCC(=O)Nc1ccc(CCc2n[nH]c3ccnc(NC4CCCCC4)c23)cc1` [Example 272, N-{4-[2-(4-Cyclohexylamino-1H-pyrazolo[4,3-c]pyridin-3-yl)-ethyl]-phenyl}-2-methoxy-acetamide], the IC50 was below 100 nM.
In the case of `O=C(/C=C/c1n[nH]c2ccnc(OC3CCCCC3)c12)N1CCC[C@H](c2ccccc2)C1` [Example 261, (E)-3-(4-Cyclohexyloxy-1H-pyrazolo[4,3-c]pyridin-3-yl)-1-((R)-3-phenyl-piperidin-1-yl)-propenone], the IC50 was below 100 nM.
For `Cc1n[nH]c2ccnc(NC(C)CC(C)C)c12` (stereo not drawn) [Example 45, (1,3-Dimethyl-butyl)-(3-methyl-1H-pyrazolo[4,3-c]pyridin-4-yl)-amine], the IC50 is 1000 to 10000 nM.
With `Cc1n[nH]c2ccnc(NC3CCC3)c12` [Example 22, Cyclobutyl-(3-methyl-1H-pyrazolo[4,3-c]pyridin-4-yl)-amine] the figure was 100 to 1000 nM.
With `COc1ccccc1Nc1nccc2[nH]nc(C)c12` [Example 84, (2-Methoxy-phenyl)-(3-methyl-1H-pyrazolo[4,3-c]pyridin-4-yl)-amine] the figure was 100 to 1000 nM; with `c1cc2[nH]nc(-c3cnn(CCN4CCOCC4)c3)c2c(NC2CCCCC2)n1` [Example 233, Cyclohexyl-{3-[1-(2-morpholin-4-yl-ethyl)-1H-pyrazol-4-yl]-1H-pyrazolo[4,3-c]pyridin-4-yl}-amine], 100 to 1000 nM.
As for `Cc1n[nH]c2ccnc(NCCc3ccc(F)cc3)c12` [Example 334, [2-(4-Fluoro-phenyl)-ethyl]-(3-methyl-1H-pyrazolo[4,3-c]pyridin-4-yl)-amine], the IC50 was 100 to 1000 nM.
Turning to `Cc1n[nH]c2ccnc(OC3CCOCC3)c12` [Example 118, 3-Methyl-4-(tetrahydro-pyran-4-yloxy)-1H-pyrazolo[4,3-c]pyridine], the IC50 lay in the range of 100 to 1000 nM.
`Cc1n[nH]cc1Nc1nccc2[nH]nc(C)c12` [Example 82, (3-Methyl-1H-pyrazolo[4,3-c]pyridin-4-yl)-(3-methyl-1H-pyrazol-4-yl)-amine]: the IC50 fell in the range of 1000 to 10000 nM.
`Cc1n[nH]c2ccnc(NC3CC3)c12` [Example 11, Cyclopropyl-(3-methyl-1H-pyrazolo[4,3-c]pyridin-4-yl)-amine]: the half-inhibitory concentration (IC50) lay within 1000 to 10000 nM.
Take `O=C(CCc1n[nH]c2ccnc(NC3CCCCC3)c12)NCC1CCOCC1` [Example 185, 3-(4-Cyclohexylamino-1H-pyrazolo[4,3-c]pyridin-3-yl)-N-(tetrahydro-pyran-4-ylmethyl)-propionamide]: the IC50 fell in the range of 1000 to 10000 nM.
With `O=C(CCc1n[nH]c2ccnc(NC3CCCCC3)c12)Nc1cccc(F)c1` [Example 187, 3-(4-Cyclohexylamino-1H-pyrazolo[4,3-c]pyridin-3-yl)-N-(3-fluoro-phenyl)-propionamide], the IC50 is 1000 to 10000 nM.
On to `c1ccc(Cn2cc(-c3n[nH]c4ccnc(NC5CCCCC5)c34)cn2)nc1` [Example 234, Cyclohexyl-[3-(1-pyridin-2-ylmethyl-1H-pyrazol-4-yl)-1H-pyrazolo[4,3-c]pyridin-4-yl]-amine], for which the IC50 fell in the range of 100 to 1000 nM.
On to `Cc1n[nH]c2ccnc(-c3cccc(NS(C)(=O)=O)c3)c12` [Example 52, N-[3-(3-Methyl-1H-pyrazolo[4,3-c]pyridin-4-yl)-phenyl]-methane-sulfonamide], for which the IC50 lay in the range of 1000 to 10000 nM.
For the compound `Cc1n[nH]c2ccnc(Nc3ccc(C#N)cc3)c12` [Example 348, 4-(3-Methyl-1H-pyrazolo[4,3-c]pyridin-4-ylamino)-benzonitrile], the concentration for half-maximal inhibition (IC50) was in the range of 1000 to 10000 nM.
Consider `c1ccc(CCc2n[nH]c3ccnc(NC4CCCCC4)c23)cc1` [Example 213, Cyclohexyl-(3-phenethyl-1H-pyrazolo[4,3-c]pyridin-4-yl)-amine], for which the IC50 was below 100 nM.
For `c1cc2[nH]nc(-c3ccc(N4CCOCC4)cc3)c2c(NC2CCCCC2)n1` [Example 152, Cyclohexyl-[3-(4-morpholin-4-yl-phenyl)-1H-pyrazolo[4,3-c]pyridin-4-yl]-amine] the value was 100 to 1000 nM.
In the case of `N#Cc1ccc(-c2n[nH]c3ccnc(NC4CCCCC4)c23)cc1` [Example 158], the IC50 lay within 1000 to 10000 nM.
`c1cc2[nH]nc(-c3cnc(N4CCOCC4)nc3)c2c(NC2CCCCC2)n1` [Example 160, Cyclohexyl-[3-(2-morpholin-4-yl-pyrimidin-5-yl)-1H-pyrazolo[4,3-c]pyridin-4-yl]-amine]: the IC50 fell in the range of 100 to 1000 nM.
With `Cc1n[nH]c2ccnc(N3CCN(c4cccc(Cl)c4)CC3)c12` [Example 7, 4-[4-(3-Chloro-phenyl)-piperazin-1-yl]-3-methyl-1H-pyrazolo[4,3-c]pyridine], the IC50 lay in the range of 1000 to 10000 nM.
In the case of `CS(=O)(=O)N1CCC(CCc2n[nH]c3ccnc(NC4CCCCC4)c23)CC1` [Example 220, Cyclohexyl-{3-[2-(1-methanesulfonyl-piperidin-4-yl)-ethyl]-1H-pyrazolo[4,3-c]pyridin-4-yl}-amine], the IC50 lay in the range of 100 to 1000 nM.
On to `Cc1n[nH]c2ccnc(Nc3ccc(C(=O)N(C)c4ccccc4)cc3)c12` [Example 109, N-Methyl-4-(3-methyl-1H-pyrazolo[4,3-c]pyridin-4-ylamino)-N-phenyl-benzamide], for which the half-maximal inhibitory concentration (IC50) was in the range of 1000 to 10000 nM.
Take `Cc1n[nH]c2ccnc(N[C@H](C)C(C)C)c12` [Example 39, ((R)-1,2-Dimethyl-propyl)-(3-methyl-1H-pyrazolo[4,3-c]pyridin-4-yl)-amine]: the IC50 fell in the range of 100 to 1000 nM.
